{"source": "ChEMBL document CHEMBL1811877", "about": "“Bioactive neolignans and lignans from the bark of Machilus robusta” (J Nat Prod, 2011)", "key": {"PC-12 [1]": {"tested_on": "PC-12", "assay": "Cytoprotection against serum deprivation-induced cellular damage of rat PC12 cells assessed as increase in cell viability at 10 uM after 48 hrs by MTT assay (reference value: 66.6 +/- 9.2%)", "format": "functional"}, "[2]": {"tested_on": "Human immunodeficiency virus 1", "assay": "Antiviral activity against Human immunodeficiency virus 1 assessed as inhibition of viral replication at 0.001 uM", "format": "functional"}, "[3]": {"tested_on": "Human immunodeficiency virus 1", "assay": "Antiviral activity against Human immunodeficiency virus 1 assessed as inhibition of viral replication", "format": "functional, organism-based"}, "PC-12 [4]": {"tested_on": "PC-12", "assay": "Cytoprotection against rotenone-induced toxicity in rat PC12 cells assessed as increase in cell viability at 10 uM after 48 hrs by MTT assay (reference value: 73.0 +/- 9.6%)", "format": "functional"}, "WB-F344": {"tested_on": "WB-F344", "assay": "(§1) Hepatoprotective activity in rat WB-F344 cells assessed as inhibition of D-galactosamine-induced cell damage at 10 uM treated 1 hr before D-galactosamine challenge after 24 hrs by MTT assay", "format": "functional"}, "[5]": {"assay": "as §1", "format": "functional"}}, "note": "pIC50: −log10 of the molar value. Activity calls are given as the source filed them. The rule behind the calls is not given here."}
{"smiles": "COc1cc([C@@H]2OC[C@H]3[C@@H]2CO[C@H]3c2ccc(O)c(OC)c2)ccc1O", "note": "[(-)-PINORESINOL]", "values": [{"measurement": "Activity", "setting": "PC-12 [1]", "value": 73.2, "unit": "%"}]}
{"smiles": "COc1cc2c(cc1O)[C@H](c1cc(OC)c(O)c(OC)c1)[C@@H](C)[C@@H](COC(C)=O)C2", "values": [{"measurement": "inhibition", "setting": "[2]", "value": "inactive"}, {"measurement": "Activity", "setting": "PC-12 [1]", "value": "inactive"}, {"measurement": "inhibition", "setting": "[3]", "value": "inactive"}, {"measurement": "Activity", "setting": "PC-12 [4]", "value": "inactive"}, {"measurement": "inhibition", "setting": "WB-F344", "value": "inactive"}]}
{"smiles": "COc1cc(C[C@H](C)[C@H](C)Cc2cc(O)c(O)c(OC)c2)ccc1O", "values": [{"measurement": "inhibition", "setting": "[2]", "value": "inactive"}, {"measurement": "Activity", "setting": "PC-12 [1]", "value": "inactive"}, {"measurement": "inhibition", "setting": "[3]", "value": "inactive"}, {"measurement": "Activity", "setting": "PC-12 [4]", "value": 96.2, "unit": "%"}, {"measurement": "inhibition at 10 µM", "setting": "[5]", "value": 68, "unit": "%"}]}
{"smiles": "COc1cc([C@H]2c3c(cc(OC)c(O)c3OC)C[C@@H](CO)[C@@H]2CO)cc(OC)c1O", "values": [{"measurement": "Activity", "setting": "PC-12 [1]", "value": 79.4, "unit": "%"}]}
{"smiles": "COc1cc(C[C@H](C)[C@H](C)Cc2cc(OC)c(OC)c(OC)c2)ccc1O", "values": [{"measurement": "inhibition", "setting": "[2]", "value": "inactive"}, {"measurement": "Activity", "setting": "PC-12 [1]", "value": "inactive"}, {"measurement": "inhibition", "setting": "[3]", "value": "inactive"}, {"measurement": "Activity", "setting": "PC-12 [4]", "value": "inactive"}, {"measurement": "inhibition", "setting": "WB-F344", "value": "inactive"}]}
{"smiles": "COc1cc2c(cc1O)C(=O)[C@H](C)[C@@H](C)C2", "values": [{"measurement": "inhibition", "setting": "[2]", "value": "inactive"}, {"measurement": "Activity", "setting": "PC-12 [1]", "value": "inactive"}, {"measurement": "inhibition", "setting": "[3]", "value": "inactive"}, {"measurement": "Activity", "setting": "PC-12 [4]", "value": "inactive"}, {"measurement": "inhibition", "setting": "WB-F344", "value": "inactive"}]}
{"smiles": "COc1cc(C[C@H](COC(C)=O)[C@H](C)Cc2cc(OC)c(O)c(OC)c2)ccc1O", "values": [{"measurement": "inhibition", "setting": "[2]", "value": "inactive"}, {"measurement": "Activity", "setting": "PC-12 [1]", "value": "inactive"}, {"measurement": "inhibition", "setting": "[3]", "value": "inactive"}, {"measurement": "Activity", "setting": "PC-12 [4]", "value": "inactive"}, {"measurement": "inhibition", "setting": "WB-F344", "value": "inactive"}]}
{"smiles": "COc1cc(C[C@H](C)[C@H](C)Cc2cc(OC)c(O[C@H](C)[C@@H](O)c3ccc(O)c(OC)c3)c(OC)c2)ccc1O", "values": [{"measurement": "inhibition", "setting": "[2]", "value": "inactive"}, {"measurement": "Activity", "setting": "PC-12 [1]", "value": "inactive"}, {"measurement": "pIC50", "setting": "[3]", "value": 5.60}, {"measurement": "Activity", "setting": "PC-12 [4]", "value": "inactive"}, {"measurement": "inhibition", "setting": "WB-F344", "value": "inactive"}]}
{"smiles": "COc1cc2c(cc1O)C(=O)[C@H](C)[C@H](C)C2", "values": [{"measurement": "inhibition", "setting": "[2]", "value": "inactive"}, {"measurement": "Activity", "setting": "PC-12 [1]", "value": "inactive"}, {"measurement": "inhibition", "setting": "[3]", "value": "inactive"}, {"measurement": "Activity", "setting": "PC-12 [4]", "value": "inactive"}, {"measurement": "inhibition", "setting": "WB-F344", "value": "inactive"}]}
{"smiles": "COc1cc2c(cc1O)[C@H](c1cc(OC)c(O)c(OC)c1)[C@@H](C)[C@@H](C)C2", "values": [{"measurement": "inhibition", "setting": "[2]", "value": "inactive"}, {"measurement": "Activity", "setting": "PC-12 [1]", "value": "inactive"}, {"measurement": "inhibition", "setting": "[3]", "value": "inactive"}, {"measurement": "Activity", "setting": "PC-12 [4]", "value": "inactive"}, {"measurement": "inhibition at 10 µM", "setting": "[5]", "value": 64, "unit": "%"}]}
{"smiles": "COc1cc([C@@H]2OC[C@H](Cc3cc(OC)c(O)c(OC)c3)[C@H]2C)ccc1O", "values": [{"measurement": "inhibition", "setting": "[2]", "value": "inactive"}, {"measurement": "Activity", "setting": "PC-12 [1]", "value": "inactive"}, {"measurement": "inhibition", "setting": "[3]", "value": "inactive"}, {"measurement": "Activity", "setting": "PC-12 [4]", "value": "inactive"}, {"measurement": "inhibition", "setting": "WB-F344", "value": "inactive"}]}
{"smiles": "O=C1Nc2ccc(Cl)cc2[C@@](C#CC2CC2)(C(F)(F)F)O1", "note": "[EFAVIRENZ]", "values": [{"measurement": "inhibition at 0.001 µM", "setting": "[2]", "value": 42.5, "unit": "%"}]}
{"smiles": "COc1cc(C[C@H](C)[C@H](COC(C)=O)Cc2cc(OC)c(O)c(OC)c2)ccc1O", "values": [{"measurement": "inhibition", "setting": "[2]", "value": "inactive"}, {"measurement": "Activity", "setting": "PC-12 [1]", "value": "inactive"}, {"measurement": "inhibition", "setting": "[3]", "value": "inactive"}, {"measurement": "Activity", "setting": "PC-12 [4]", "value": "inactive"}, {"measurement": "inhibition", "setting": "WB-F344", "value": "inactive"}]}
{"smiles": "COc1cc2c(cc1O)[C@H](c1cc(OC)c(OC)c(OC)c1)[C@@H](C)[C@@H](C)C2", "values": [{"measurement": "inhibition", "setting": "[2]", "value": "inactive"}, {"measurement": "Activity", "setting": "PC-12 [1]", "value": "inactive"}, {"measurement": "inhibition", "setting": "[3]", "value": "inactive"}, {"measurement": "Activity", "setting": "PC-12 [4]", "value": "inactive"}, {"measurement": "inhibition", "setting": "WB-F344", "value": "inactive"}]}
{"smiles": "COc1cc([C@H](O)[C@@H](C)Oc2ccc([C@H]3c4cc(O)c(OC)cc4C[C@@H](C)[C@@H]3C)cc2OC)ccc1O", "values": [{"measurement": "inhibition", "setting": "[2]", "value": "inactive"}, {"measurement": "Activity", "setting": "PC-12 [1]", "value": "inactive"}, {"measurement": "inhibition", "setting": "[3]", "value": "inactive"}, {"measurement": "Activity", "setting": "PC-12 [4]", "value": "inactive"}, {"measurement": "inhibition", "setting": "WB-F344", "value": "inactive"}]}
{"smiles": "COC(=O)c1cc(OC)c2c(c1-c1c(CO)cc(OC)c3c1OCO3)OCO2", "note": "[BICYCLOL]", "values": [{"measurement": "inhibition at 10 µM", "setting": "[5]", "value": 67, "unit": "%"}]}
{"smiles": "COc1cc([C@H]2O[C@@H](c3cc(OC)c(O)c(OC)c3)[C@H](C)[C@@H]2C)ccc1O", "values": [{"measurement": "inhibition", "setting": "[2]", "value": "inactive"}, {"measurement": "Activity", "setting": "PC-12 [1]", "value": "inactive"}, {"measurement": "inhibition", "setting": "[3]", "value": "inactive"}, {"measurement": "Activity", "setting": "PC-12 [4]", "value": "inactive"}, {"measurement": "inhibition", "setting": "WB-F344", "value": "inactive"}]}
{"smiles": "COc1cc(C[C@H](C)[C@H](C)Cc2cc(OC)c(O[C@@H](C)[C@@H](O)c3ccc(O)c(OC)c3)c(OC)c2)ccc1O", "values": [{"measurement": "inhibition", "setting": "[2]", "value": "inactive"}, {"measurement": "Activity", "setting": "PC-12 [1]", "value": "inactive"}, {"measurement": "pIC50", "setting": "[3]", "value": 5.70}, {"measurement": "Activity", "setting": "PC-12 [4]", "value": "inactive"}, {"measurement": "inhibition", "setting": "WB-F344", "value": "inactive"}]}
{"smiles": "COc1cc2c(cc1O)[C@H](c1ccc(O)c(O)c1)[C@@H](C)[C@@H](C)C2", "values": [{"measurement": "inhibition", "setting": "[2]", "value": "inactive"}, {"measurement": "Activity", "setting": "PC-12 [1]", "value": "inactive"}, {"measurement": "inhibition", "setting": "[3]", "value": "inactive"}, {"measurement": "Activity", "setting": "PC-12 [4]", "value": "inactive"}, {"measurement": "inhibition", "setting": "WB-F344", "value": "inactive"}]}
{"smiles": "COc1cc2c(cc1O)[C@H](c1cc(O)c(O)c(OC)c1)[C@@H](C)[C@@H](C)C2", "values": [{"measurement": "inhibition", "setting": "[2]", "value": "inactive"}, {"measurement": "Activity", "setting": "PC-12 [1]", "value": "inactive"}, {"measurement": "inhibition", "setting": "[3]", "value": "inactive"}, {"measurement": "Activity", "setting": "PC-12 [4]", "value": "inactive"}, {"measurement": "inhibition at 10 µM", "setting": "[5]", "value": 77.2, "unit": "%"}]}
{"smiles": "COc1cc(C[C@H](C)[C@H](C)Cc2ccc(O)cc2)ccc1O", "values": [{"measurement": "inhibition", "setting": "[2]", "value": "inactive"}, {"measurement": "Activity", "setting": "PC-12 [1]", "value": "inactive"}, {"measurement": "inhibition", "setting": "[3]", "value": "inactive"}, {"measurement": "Activity", "setting": "PC-12 [4]", "value": "inactive"}, {"measurement": "inhibition", "setting": "WB-F344", "value": "inactive"}]}
{"smiles": "COc1cc(C[C@H](C)[C@H](C)Cc2cc(OC)c(O)c(OC)c2)ccc1O", "values": [{"measurement": "inhibition", "setting": "[2]", "value": "inactive"}, {"measurement": "Activity", "setting": "PC-12 [1]", "value": "inactive"}, {"measurement": "inhibition", "setting": "[3]", "value": "inactive"}, {"measurement": "Activity", "setting": "PC-12 [4]", "value": "inactive"}, {"measurement": "inhibition", "setting": "WB-F344", "value": "inactive"}]}
